{"source": "patent US20010009764A1", "about": "“Endothelial-derived toxic factor” (priority 1997, published 2001)", "key": {"[1]": {"tested_on": "primary cerebral cortical cultures", "assay": "Neurotoxicity (LDH release) of AD microvessel-conditioned medium", "type": "cell-based, rat", "protocol": "Microvessels stored in liquid nitrogen, were quick-thawed at 37° C. and centrifuged at 2,000×g for 10 min. The vessels were washed 3 times with cold Hank's balanced salt-solution and resuspended in serum-free DMEM (2 ml) containing 1% lactalbumin hydrolysate. Microvessels were allowed to “recover” for 1 h, after which they released little LDH. The microvessels were washed by centrifugation and resuspended at a concentration of 100 μg protein per ml in serum-free DMEM containing 1% lactalbumin hydrolysate. The microvessels were then incubated for variable times (4-24 h) in a CO2 incubator, centrifuged, and the conditioned medium was sterile-filtered through a 0.4 μm filter, and used immediately.\nProcedures for primary neuronal cultures prepared from fetal rat brains were previously described (Grammas P, Moore P, Weigel P H, “Production of Neurotoxic Factors by Brain Endothelium in AD”, Ann. NY Acad. Sci., 826, 1997, which is hereby incorporated herein by reference.) Neurons are obtained and cultured from 17 day fetal rats. […] The purity of these cultures was determined by antibody reactivity to neuronal-specific enolase.\nCell death by necrosis was determined by release of cytoplasmic lactate dehydrogenase (LDH) (Grammas et al., “Production Of Neurotoxic Factors By Brain Endothelium In AD”, Ann NY Acad Sci, 826:47-55, 1997). […] The A490 of each well was measured to determine LDH activity. […]"}, "neuronal cultures [2]": {"tested_on": "neuronal cultures", "assay": "Neuronal cytotoxicity (LDH release) of conditioned media from rat brain endothelial cells treated with PKC modulators", "type": "cell-based", "settings": "for EDTF^BIM release from endothelial cell cultures: treatment with other PKC inhibitors; for cytotoxic response as % of that elicited by BIM: inhibitor 1 μM on endothelial cells, BIM-mediated cytotoxicity = 100%", "protocol": "FIG. 8. Specificity of endothelial derived toxic factor EDTF response to Protein Kinase C inhibition. To confirm that production of EDTF in response to BIM (EDTF^BIM) was indeed related to PKC inhibition, the effect of other PKC inhibitors, calphostin (Cal) and stauroporine (S'sporin) as well as the PKC agonist PMA, were examined. Endothelial cell cultures were incubated in serum-free media (control) containing either BIM (1 μM); BIM and PMA (1 μM each); calphostin (1 μM); or staurosporine (1 μM). The media were collected after 24 hours and added to neuronal cultures and cytotoxicity (LDH release) was measured after 24 hours. Data are expressed as a percentage of the BIM-mediated cytotoxicity (100%).\n(§1) Cell death by necrosis was determined by release of cytoplasmic lactate dehydrogenase (LDH) (Grammas et al., “Production Of Neurotoxic Factors By Brain Endothelium In AD”, Ann NY Acad Sci, 826:47-55, 1997). Medium (100 μl) from the neuronal cultures was removed, added to a 96-well plate, the chromogenic substrate added, and the plate was incubated at room temperature for 30 min in darkness. The A490 of each well was measured to determine LDH activity. Data (% cytotoxicity) were expressed as a percentage of total LDH released by treatment with 1% Triton X-100 added to the same well. Vascular LDH release, determined for microvessel-containing inserts placed in wells without neuronal cells, was subtracted from each co-culture point. Each point was performed in duplicate.\nFor the preparation of endothelial-conditioned media, the media were removed and confluent endothelial cell cultures washed with versene and fresh serum-free DMEM containing (unless otherwise indicated) 1 μM of the PKC inhibitor, bisindolylmaleimide (BIM), was added. The conditioned medium was collected, after 8-24 hrs, and centrifuged at 100,000 g to remove debris and suspended cells, and 5% heat-inactivated horse serum was added prior to application of media to neuronal cultures.\nNeurons were obtained and cultured from 15-18 day rat embryos by published methods (Dawson V. L., Dawson, T. M., London E. D., Bredt D. S., Snyder S. H., “Nitric Oxide Mediates Glutamate Neurotoxicity in Primary Cortical Cultures”, Proc. Natl. Acad. Sci. USA, 88:6368-6371, 1991, with our modifications: Grammas P, Moore P, Weigel P H, “Production of Neurotoxic Factors by Brain Endothelium in AD”, Ann. NY Acad. Sci., 826, 1997). Cerebral cortices were isolated, dissociated in Brooks-Logan solution (5% phosphate buffered saline, 0.04 M sucrose, 10 mM HEPES, pH 7.5, 0.03 M glucose) by trituration and seeded in polylysine-coated 24 well plates (15), containing DMEM with 5% heat-inactivated horse serum. After five days of culture, the cells were treated with 10 μg of 5-fluoro-2′-deoxyuridine per well and cultures were maintained for an additional 2 to 3 weeks."}, "[3]": {"tested_on": "primary cerebral cortical cultures", "assay": "Neuronal necrosis by candidate molecules at 4 h", "type": "cell-based, rat", "settings": "data not shown", "protocol": "as §1"}, "neuronal cultures [4]": {"tested_on": "neuronal cultures", "type": "cell-based, rat", "protocol": "as §1\nNeurons were obtained and cultured from 15-18 day rat embryos by published methods (Dawson V. L., Dawson, T. M., London E. D., Bredt D. S., Snyder S. H., “Nitric Oxide Mediates Glutamate Neurotoxicity in Primary Cortical Cultures”, Proc. Natl. Acad. Sci. USA, 88:6368-6371, 1991, with our modifications: Grammas P, Moore P, Weigel P H, “Production of Neurotoxic Factors by Brain Endothelium in AD”, Ann. NY Acad. Sci., 826, 1997). […]"}, "endothelial cultures": {"tested_on": "endothelial cultures", "type": "cell-based, rat", "protocol": "as §1\nSmall arterioles from rat brain were isolated, and endothelial cell cultures initiated, as previously published (Diglio C. A., Grammas P., Giacomelli F. and Wiener J., “Rat Cerebral Microvascular Smooth Muscle Cells in Culture”, J. Cell Physiol., 129:131-141, 1986; Diglio C. A., Liu W., Grammas P., Giacomelli F., and Wiener J., “Isolation and Characterization of Cerebral Resistance Vessel Endothelium in Culture”, Tissue and Cell, 25:833-846, 1993). […] Cells (passages 10-15) were maintained in Dulbecco's modified Eagle's medium (DMEM) and 10% fetal calf serum and subcultured using trypsin-versene (0.025%)."}}}
{"molecule": "N=C(NCCC[C@H](N)C(=O)O)N[N+](=O)[O-]", "note": "[N^GNitro-L-arginine]", "values": [{"measurement": "% neurotoxicity of conditioned medium", "setting": "[1]; AD microvessels with or without preincubation with 10 μM N^GNitro-L-arginine", "result": "69±12", "unit": "%"}]}
{"molecule": "CCCCCCCCCCCCCC(=O)O[C@@H]1[C@@H](C)[C@@]2(O)[C@@H](C=C(CO)C[C@]3(O)C(=O)C(C)=C[C@@H]23)[C@@H]2C(C)(C)[C@]12OC(C)=O", "note": "[PMA, phorbol myristate acetate]", "values": [{"measurement": "reduction of neuronal cytotoxicity (EDTF^BIM release) compared to BIM alone", "setting": "neuronal cultures [2]; concurrent PMA and BIM, 1 μM each, media collected 24 hours, LDH after 24 hours", "result": "approximately 60%"}]}
{"molecule": "C[C@@H]1C[C@@H]([C@H](O)CC2CC(=O)NC(=O)C2)C(=O)[C@@H](C)C1", "note": "[cycloheximide]", "values": [{"measurement": "decrease in neuronal necrosis", "setting": "[1]; AD microvessels incubated with cycloheximide 10 μg/ml", "result": 60, "unit": "%"}]}
{"molecule": "CCCCCCCCCCCCC/C=C/[C@@H](O)[C@@H](N)CO", "note": "[sphingosine]", "values": [{"measurement": "EDTF^BIM release from endothelial cell cultures", "setting": "neuronal cultures [2]", "result": "elicited EDTF^BIM release"}]}
{"molecule": "CN[C@@H]1C[C@H]2O[C@@](C)([C@@H]1OC)n1c3ccccc3c3c4c(c5c6ccccc6n2c5c31)C(=O)NC4", "note": "[staurosporine]", "values": [{"measurement": "cytotoxic response as % of that elicited by BIM", "setting": "neuronal cultures [2]", "result": 47, "unit": "%"}]}
{"molecule": "amyloid β", "values": [{"measurement": "neuronal necrosis at 4 h", "setting": "[3]", "result": "little neuronal necrosis"}]}
{"molecule": "bisindolylmaleimide [BIM]", "values": [{"measurement": "% cytotoxicity when added directly to neuronal cultures", "setting": "neuronal cultures [4]", "result": 16, "unit": "%"}, {"measurement": "% cytotoxicity on endothelial cultures", "setting": "endothelial cultures", "result": 10, "unit": "%"}]}
{"molecule": "calphostin", "values": [{"measurement": "cytotoxic response as % of that elicited by BIM", "setting": "neuronal cultures [2]", "result": 60, "unit": "%"}, {"measurement": "EDTF^BIM release from endothelial cell cultures", "setting": "neuronal cultures [2]", "result": "elicited EDTF^BIM release"}]}
{"molecule": "tumor necrosis factor α", "values": [{"measurement": "neuronal necrosis at 4 h", "setting": "[3]", "result": "little neuronal necrosis"}]}
